Columns and labels:
[1] = Solubility of the compounds in water (25° C.); assay type: physicochemical
[2] = Dissociation test of the compounds in whole blood of rats; assay type: in vitro ADME; settings: rat whole blood, 37° C., HPLC
Method: Each of the compounds to be tested was weighed (1 mg), placed in water (2 ml), and formulated into a solution having a concentration of about 0.5 mg/ml as a stock solution for further use. Whole blood of rats (0.45 ml) was taken and placed in a 2 ml EP tube, which was placed in a 37° C. water bath for preheating for 20 seconds. Then the stock solution of the compound (50 μL) was added quickly. After a homogeneous mixing, the EP tube was placed in a 37° C. water bath, and time counting was initiated. Acetonitrile (1 ml) was injected immediately at predetermined time points (1 min, 3 min, 5 min, 15 min). The solution was centrifuged for 5 min (15000 rpm), filtered with a 0.22 μm filtration membrane and subjected to HPLC detection, and the results were given below: […]

[3] = Stability test of the compounds in a 5% aqueous glucose solution; assay type: physicochemical; settings: room temperature; for Dissociation percent (%): 5% glucose solution, about 0.5 mg/ml, HPLC; for Solution: appearance of the about 0.5 mg/ml solution in 5% glucose
Method: Each of the compounds to be tested was weighed (1 mg), placed in a 5% glucose solution (2 ml) and formulated into a solution having a concentration of about 0.5 mg/ml. The solution stood at room temperature, and was sampled at several time points (0.5 h, 1 h, 2 h, 3 h and 5 h).

Row | Structure (SMILES) | Solubility [1] [µg/mL] | Dissociation percent (%) ([2]; 1 min) | Dissociation percent (%) ([2]; 3 min) | Dissociation percent (%) ([2]; 5 min) | Dissociation percent (%) ([2]; 15 min) | Dissociation percent (%) ([3]; 0 h) | Dissociation percent (%) ([3]; 0.5 h) | Dissociation percent (%) ([3]; 1 h) | Dissociation percent (%) ([3]; 2 h) | Dissociation percent (%) ([3]; 3 h) | Dissociation percent (%) ([3]; 5 h) | Solution [3]
1 | CC(=O)C1CCC2C3CCC4CC(OC(=O)C(F)CC(=O)[O-])CCC4(C)C3CCC12C.[Na+] (stereo not drawn) [Compound 11] | >400 | 40.83 | 50.35 | 69.32 | 100 | 0.02 | 0.11 | 0.19 | 0.32 | 0.49 | 0.79 | Clear
2 | CC(=O)C1CCC2C3CCC4CC(OC(=O)C(F)C(=O)[O-])CCC4(C)C3CCC12C.[Na+] (stereo not drawn) [Compound 10] | >400 | 39.78 | 52.28 | 72.31 | 100 | 0.02 | 0.14 | 0.21 | 0.36 | 0.51 | 0.86 | Clear
3 | CC(=O)C1CCC2C3CCC4CC(OC(=O)C(F)CCOP(=O)([O-])[O-])CCC4(C)C3CCC12C.[Na+].[Na+] (stereo not drawn) [Compound 16] | >300 | 35.94 | 47.88 | 66.47 | 94.56 | 0.02 | 0.13 | 0.21 | 0.41 | 0.62 | 0.93 | Clear

— patent US20190322698A1, “WATER-SOLUBLE ALLOPR[…] USE THEREOF” (JIANGSU NHWALUOKANG PHARMACEUTICAL RESEARCH AND DEVELOPMENT …, priority 2016, published 2019)
